# Assay results as given in EPA's ToxValDB 9.5 (doi:10.2903/j.efsa.2005.34ar).
# What was measured:
# Canidae = conditions: chronic; duration: 1 years; oral; Dog Other; clinical signs
# Oncorhynchus mykiss = conditions: chronic/long-term; duration: 21 days
# Tagia sp. = conditions: acute; mortality
# Lepomis macrochirus = conditions: acute; duration: 96 hours; mortality
# Apis mellifera = conditions: acute, mortality
# Daphnia magna = conditions: chronic/long-term; duration: 21 days; reproduction
# Aphidius rhopalosiphi = assay: LR50; higher = less toxic; conditions: not reported; duration: 14 days; mortality
# Typhlodromus pyri = assay: LR50; higher = less toxic; conditions: acute; duration: 14 days; mortality
smiles,measurement,setting,value
C#CCOC(=O)[C@@H](C)Oc1ccc(Oc2ncc(Cl)cc2F)cc1 [Clodinafop-propargyl],NOAEL,Canidae,3.4 mg/kg-day
same,NOEC,Oncorhynchus mykiss,0.1 mg/L
same,LC50,"Colinus virginianus; acute, oral, diet, mortality",> 980 mg/kg-day
same,LD50,"Colinus virginianus; acute, oral, mortality",1360 mg/kg
same,NOEC,Colinus virginianus; reproduction developmental,43 mg/kg-day
same,LC50,Tagia sp.,197 mg/kg
same,LC50,Lepomis macrochirus,0.21 µg/mL
same,LD50,Apis mellifera; dermal,40.9 µg/piece
same,LD50,"Apis mellifera; duration: 48 hours, oral, unspecified",> 93.7 µg/piece
same,LD50,"Rattus norvegicus; acute, oral, M, mortality",1390 mg/kg
same,NOAEL,"Rattus norvegicus; chronic, duration: 2 years, oral, clinical signs",0.32 mg/kg-day
same,NOAEL,"Rattus norvegicus; developmental, development",5 mg/kg-day
same,NOAEL,"Rattus norvegicus; reproduction developmental, reproduction",4.63 mg/kg-day
same,NOEC,Daphnia magna,0.23 mg/L
same,LR50,Aphidius rhopalosiphi,3.1 g/ha
same,LR50,Typhlodromus pyri,20 g/ha
